Experimental data: patent publication US5506102A (priority 1993, dated 1996)

Molecular target: T1, PR-A (Homo sapiens, UniProt P06401)
T1 sequence (P06401 165-933): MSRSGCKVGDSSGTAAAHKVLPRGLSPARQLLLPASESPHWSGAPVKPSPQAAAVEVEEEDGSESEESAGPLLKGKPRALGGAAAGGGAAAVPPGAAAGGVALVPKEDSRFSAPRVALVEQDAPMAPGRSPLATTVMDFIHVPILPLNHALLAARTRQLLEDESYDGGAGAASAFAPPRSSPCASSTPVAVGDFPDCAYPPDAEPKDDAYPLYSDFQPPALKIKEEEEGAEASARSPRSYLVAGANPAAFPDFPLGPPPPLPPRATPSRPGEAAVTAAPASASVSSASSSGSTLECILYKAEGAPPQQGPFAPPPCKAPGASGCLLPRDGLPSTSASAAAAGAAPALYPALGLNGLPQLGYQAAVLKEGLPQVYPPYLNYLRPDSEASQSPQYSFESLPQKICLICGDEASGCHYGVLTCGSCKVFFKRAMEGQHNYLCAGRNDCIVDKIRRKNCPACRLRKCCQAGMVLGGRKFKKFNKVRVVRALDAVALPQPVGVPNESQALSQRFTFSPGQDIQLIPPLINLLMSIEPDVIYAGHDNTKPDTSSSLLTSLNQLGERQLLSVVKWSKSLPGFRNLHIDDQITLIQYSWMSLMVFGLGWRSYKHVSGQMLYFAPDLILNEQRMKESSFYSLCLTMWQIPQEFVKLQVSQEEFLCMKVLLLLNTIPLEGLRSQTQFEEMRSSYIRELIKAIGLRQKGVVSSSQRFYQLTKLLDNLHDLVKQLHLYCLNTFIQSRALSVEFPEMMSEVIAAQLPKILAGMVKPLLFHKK
Assay: PR-A regulation of TAT promoter
Assay type: cell-based
Parameters: TAT2950-LUC in HeLa, PRE2 tk-LUC in CV-1/HepG2
Conditions: data not shown
Experimental: FIGS. 4A-4B are a series of graphs showing CV-1 ([…]) or HepG2 (FIG. 4B) cells that were transiently transfected with either […] of phPR-B or phPR-A alone, or phPR-B in the presence of increasing concentrations of phPR-A, together with 5 µg/ml of the PRE2 tk-LUC reporter and 5 µg/ml of pCH110 as an internal control. HeLa cells (FIG. 4C) were transfected with either phPR-B or phPR-A together with 5 µg/ml of the pTAT2950 reporter and 5 µg/ml of pCH110 as an internal control. […] The relative luciferase activity is calculated by dividing the normalized luciferase value at a given point by that obtained in the absence of transfected receptor or ligand. The data shown represent the mean +/- average deviation from the mean of triplicate estimations;
The 2.9 Kb fragment resulting from the digestion of the pTAT-CAT plasmid, and the 6.7 Kb fragment, containing the luciferase gene and the backbone resulting from MMTV-LUC digestion products, were ligated to create the plasmid TAT2950-LUC.
Cells were seeded in 12-well, 96-well or 10 cm tissue culture plates. […] 20 μg of DNA/ml of transfection buffer were used in each transfection reaction. […]

With `CC(=O)[C@H]1CC[C@H]2[C@@H]3CCC4=CC(=O)CC[C@]4(C)[C@H]3CC[C@]12C` [progesterone] as the molecule, how does the TAT promoter response (CV-1, PR-A) read?
The TAT promoter response was “unresponsive to either receptor subtype”.

And the “TAT promoter response to progesterone” value (HepG2, phPR-A)?
The value was “responded to progesterone”.
